Test results taken from patent US8999970B2, “Administration of an anti-obesity compound to individuals with renal impairment” (Arena Pharmaceuticals, Inc., priority 2010, dated 2015).
“Also recorded” adds a separate entry of the source.

Test: Clinical trial APD356-016: plasma and urine pharmacokinetics of lorcaserin, M1 and M5 after a 10 mg dose in subjects with renal impairment
Conditions: for Ae0-120 / fe0-120: urine; for CL renal / AUC(0-t) / Cmax / half-life / AUC0-inf / MRT inf / Vd/F / tmax: human, 10 mg; for CL renal: plasma and urine, ClR/F; for AUC(0-t) / Cmax / half-life / AUC0-inf / MRT inf / Vd/F / tmax: plasma; for MRT inf: MRTinf; for Vd/F: Vz/F; for tmax: median
Method: The interaction of renal insufficiency with the pharmacokinetics, tolerability and safety of lorcaserin were evaluated in a formal PK study in subjects with renal impairment and in the populations studied in phase 2 and phase 3 clinical studies.
The pharmacokinetic properties of lorcaserin in subjects with varying degrees of renal impairment were evaluated in clinical trial APD356-016. At the time of study conduct and analysis, subjects were assigned to renal impairment groups based on creatinine clearance calculated using IDEAL body weight (Table 1). This calculation was used to avoid overestimation of creatinine clearance due to the excess body weight (overweight and obese subjects were enrolled in the trial). Summaries of pharmacokinetic properties by group assignment using creatinine clearance calculated using ACTUAL body weights are also provided in the sections that follow.
The FDA expects a reasonable margin between anticipated exposures and exposures that may produce toxicity. A reasonable margin can vary depending on the expected toxicity, but generally is an order of magnitude (10 times), but can sometimes be less for mild toxicity.
Table 13. Summary of Plasma Concentrations (ng/mL) of HSO3-APD356 Metabolite over Time by Group: Severe Renal Impairment Not Receiving Dialysis (see Table 13 next page)
Subject number 3140-505 was on dialysis and grouped in the end stage renal disease group.

[1] = 10 mg dose, Mild, actual BW groups
[2] = 10 mg dose, Mild, ideal BW groups
[3] = 10 mg dose, Moderate, actual BW groups
[4] = 10 mg dose, Moderate, ideal BW groups
[5] = 10 mg dose, Normal, actual BW groups
[6] = 10 mg dose, Normal, ideal BW groups
[7] = 10 mg dose, Severe N = 1, actual BW groups
[8] = 10 mg dose, Severe, ideal BW groups
[9] = Moderate N = 8, actual BW groups
[10] = oral, 10 mg dose, Mild, actual BW groups
[11] = oral, 10 mg dose, Mild, ideal BW groups
[12] = oral, 10 mg dose, Moderate, actual BW groups
[13] = oral, 10 mg dose, Moderate, ideal BW groups
[14] = oral, 10 mg dose, Normal, actual BW groups
[15] = oral, 10 mg dose, Normal, ideal BW groups
[16] = oral, 10 mg dose, Severe N = 1, actual BW groups
[17] = oral, 10 mg dose, Severe, ideal BW groups

**Q.** Which results are given for C[C@H]1CNCCc2ccc(Cl)cc21 [Lorcaserin, (R)-8-chloro-1-methyl-2,3,4,5-tetrahydro-1H-3-benzazepine]?
**A.** % AUC0-inf Extrapolated [1]: 4.54%; Cl/F [1]: 17.3 L/h; ClNR/F [1]: 16.7 L/h; T1/2z [1]: 14.6 h; % AUC0-inf Extrapolated [2]: 3.36%; Cl/F [2]: 13.3 L/h; ClNR/F [2]: 12.8 L/h; T1/2z [2]: 13.0 h; % AUC0-inf Extrapolated [3]: 3.74%; Cl/F [3]: 18.9 L/h; ClNR/F [3]: 18.2 L/h; T1/2z [3]: 14.9 h; % AUC0-inf Extrapolated [4]: 4.92%; Cl/F [4]: 17.7 L/h; ClNR/F [4]: 17.0 L/h; T1/2z [4]: 15.9 h; % AUC0-inf Extrapolated [5]: 3.57%; Cl/F [5]: 15.6 L/h; ClNR/F [5]: 15.1 L/h; T1/2z [5]: 12.1 h; % AUC0-inf Extrapolated [6]: 3.81%; Cl/F [6]: 17.5 L/h; ClNR/F [6]: 17.1 L/h; T1/2z [6]: 11.0 h; % AUC0-inf Extrapolated [7]: 3.70%; Cl/F [7]: 17.6 L/h; ClNR/F [7]: 17.2 L/h; T1/2z [7]: 18.8 h; % AUC0-inf Extrapolated [8]: 3.59%; Cl/F [8]: 19.7 L/h; ClNR/F [8]: 19.0 L/h; T1/2z [8]: 15.0 h; Ae0-120 [1]: 297 µg; fe0-120 [1]: 0.0352; Ae0-120 [2]: 326 µg; fe0-120 [2]: 0.0386; Ae0-120 [3]: 304 µg; fe0-120 [3]: 0.0360; Ae0-120 [4]: 327 µg; fe0-120 [4]: 0.0387; Ae0-120 [5]: 257 µg; fe0-120 [5]: 0.0304; Ae0-120 [6]: 185 µg; fe0-120 [6]: 0.0220; Ae0-120 [7]: 204 µg; fe0-120 [7]: 0.0242; Ae0-120 [8]: 280 µg; fe0-120 [8]: 0.0332; Removal by hemodialysis (ESRD): not removed; also recorded: not cleared; Geometric Mean Ratio of LSM (90% CI), AUC0-inf, relative to Normal Renal Function Group (Mild N = 10, actual BW groups): 0.921 (0.735, 1.15); Geometric Mean Ratio of LSM (90% CI), AUClast, relative to Normal Renal Function Group (Mild N = 10, actual BW groups): 0.912 (0.723, 1.15); Geometric Mean Ratio of LSM (90% CI), Cmax, relative to Normal Renal Function Group (Mild N = 10, actual BW groups): 0.819 (0.652, 1.03); Geometric Mean Ratio of LSM (90% CI), AUC0-inf, relative to Normal Renal Function Group (Mild, ideal BW groups): 1.30 (1.01, 1.67); Geometric Mean Ratio of LSM (90% CI), AUClast, relative to Normal Renal Function Group (Mild, ideal BW groups): 1.31 (1.01, 1.69); Geometric Mean Ratio of LSM (90% CI), Cmax, relative to Normal Renal Function Group (Mild, ideal BW groups): 0.991 (0.764, 1.29); Geometric Mean Ratio of LSM (90% CI), AUC0-inf, relative to Normal Renal Function Group [9]: 0.869 (0.683, 1.11); Geometric Mean Ratio of LSM (90% CI), AUClast, relative to Normal Renal Function Group [9]: 0.868 (0.678, 1.11); Geometric Mean Ratio of LSM (90% CI), Cmax, relative to Normal Renal Function Group [9]: 0.738 (0.579, 0.941); Geometric Mean Ratio of LSM (90% CI), AUC0-inf, relative to Normal Renal Function Group (Moderate, ideal BW groups): 1.03 (0.806, 1.32); Geometric Mean Ratio of LSM (90% CI), AUClast, relative to Normal Renal Function Group (Moderate, ideal BW groups): 1.02 (0.791, 1.32); Geometric Mean Ratio of LSM (90% CI), Cmax, relative to Normal Renal Function Group (Moderate, ideal BW groups): 0.697 (0.537, 0.904); Geometric Mean Ratio of LSM (90% CI), AUC0-inf, relative to Normal Renal Function Group (Severe N = 1, actual BW groups): 0.861 (0.494, 1.50); Geometric Mean Ratio of LSM (90% CI), AUClast, relative to Normal Renal Function Group (Severe N = 1, actual BW groups): 0.861 (0.487, 1.52); Geometric Mean Ratio of LSM (90% CI), Cmax, relative to Normal Renal Function Group (Severe N = 1, actual BW groups): 0.468 (0.267, 0.821); Geometric Mean Ratio of LSM (90% CI), AUC0-inf, relative to Normal Renal Function Group (Severe, ideal BW groups): 0.931 (0.727, 1.19); Geometric Mean Ratio of LSM (90% CI), AUClast, relative to Normal Renal Function Group (Severe, ideal BW groups): 0.933 (0.723, 1.20); Geometric Mean Ratio of LSM (90% CI), Cmax, relative to Normal Renal Function Group (Severe, ideal BW groups): 0.686 (0.529, 0.891); CL renal [10]: 10.3 mL/min; CL renal [11]: 8.88 mL/min; CL renal [12]: 11.1 mL/min; CL renal [13]: 11.1 mL/min; CL renal [14]: 7.8 mL/min; CL renal [15]: 6.53 mL/min; CL renal [16]: 7.27 mL/min; CL renal [17]: 11 mL/min; AUC(0-t) (AUC24 hr, ESRD, 10 mg QD Authentic, Day 1): 618 ng·h/mL; AUC(0-t) (AUC24 hr, Mild, 10 mg QD Authentic, Day 1): 623 ng·h/mL; AUC(0-t) (AUC24 hr, Moderate, 10 mg QD Authentic, Day 1): 515 ng·h/mL; AUC(0-t) (AUC24 hr, Normal, 10 mg QD Authentic, Day 1): 482 ng·h/mL; AUC(0-t) (AUC24 hr, Severe, 10 mg QD Authentic, Day 1): 469 ng·h/mL; Cmax (ESRD, 10 mg QD Authentic, Day 1): 27.2 ng/mL; Cmax (Mild, 10 mg QD Authentic, Day 1): 36.3 ng/mL; Cmax (Moderate, 10 mg QD Authentic, Day 1): 26.2 ng/mL; Cmax (Normal, 10 mg QD Authentic, Day 1): 37 ng/mL; Cmax (Severe, 10 mg QD Authentic, Day 1): 26.4 ng/mL; half-life (t1/2, ESRD, 10 mg QD Authentic, Day 1): 43.8 h; half-life (t1/2, Mild, 10 mg QD Authentic, Day 1): 13 h; half-life (t1/2, Moderate, 10 mg QD Authentic, Day 1): 15.9 h; half-life (t1/2, Normal, 10 mg QD Authentic, Day 1): 11 h; half-life (t1/2, Severe, 10 mg QD Authentic, Day 1): 15 h; AUC0-inf [10]: 535 ng·h/mL; AUC0-inf [11]: 644 ng·h/mL; AUC0-inf [12]: 516 ng·h/mL; AUC0-inf [13]: 538 ng·h/mL; AUC0-inf [14]: 569 ng·h/mL; AUC0-inf [15]: 501 ng·h/mL; AUC0-inf [16]: 478 ng·h/mL; AUC0-inf [17]: 486 ng·h/mL; AUC(0-t) (oral, AUC0-t, 10 mg dose, Mild, actual BW groups): 513 ng·h/mL; AUC(0-t) (oral, AUC0-t, 10 mg dose, Mild, ideal BW groups): 623 ng·h/mL; AUC(0-t) (oral, AUC0-t, 10 mg dose, Moderate, actual BW groups): 497 ng·h/mL; AUC(0-t) (oral, AUC0-t, 10 mg dose, Moderate, ideal BW groups): 515 ng·h/mL; AUC(0-t) (oral, AUC0-t, 10 mg dose, Normal, actual BW groups): 549 ng·h/mL; AUC(0-t) (oral, AUC0-t, 10 mg dose, Normal, ideal BW groups): 482 ng·h/mL; AUC(0-t) (oral, AUC0-t, 10 mg dose, Severe N = 1, actual BW groups): 461 ng·h/mL; AUC(0-t) (oral, AUC0-t, 10 mg dose, Severe, ideal BW groups): 469 ng·h/mL; Cmax [10]: 30.2 ng/mL; Cmax [11]: 36.3 ng/mL; Cmax [12]: 27.6 ng/mL; Cmax [13]: 26.2 ng/mL; Cmax [14]: 36 ng/mL; Cmax [15]: 37 ng/mL; Cmax [16]: 16.4 ng/mL; Cmax [17]: 26.4 ng/mL; MRT inf [10]: 19.3 h; MRT inf [11]: 18 h; MRT inf [12]: 20.8 h; MRT inf [13]: 21.1 h; MRT inf [14]: 16.5 h; MRT inf [15]: 14.8 h; MRT inf [16]: 30.8 h; MRT inf [17]: 21.7 h; Vd/F [10]: 361 L; Vd/F [11]: 248 L; Vd/F [12]: 381 L; Vd/F [13]: 399 L; Vd/F [14]: 266 L; Vd/F [15]: 276 L; Vd/F [16]: 479 L; Vd/F [17]: 401 L; tmax [10]: 2.5 h; tmax [11]: 4.5 h; tmax [12]: 2.5 h; tmax [13]: 2.5 h; tmax [14]: 2 h; tmax [15]: 2 h; tmax [16]: 4 h; tmax [17]: 3 h; Fractional excretion (normal renal function): 2.2%
